According to patent US6525001B1, “Substituted pyrimidine and pyridine herbicides” (Mid-American Commercialization Corporation, priority 1997, dated 2003):

How the values were obtained:
Type in all cases: in vivo
Design in all cases: key: 0 is no effect; 10 is complete control
rice (Oryza sativa) = assay: Test B flood test
Summary of the method: (§1)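 Read-out is a visual response score from 0 (no effect) to 10 (complete control), assigned by comparison with untreated controls. Treatment was applied at the 2-leaf stage, and plants stayed in the greenhouse for twelve to sixteen days before scoring.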

[1] = tested on: duck salad (Heteranthera limosa); assay: Test B flood test
Summary of the method: as §1

[2] = tested on: bamyardgrass (Echinochloa crus-galli); assay: Test B flood test
Summary of the method: as §1

[3] = tested on: smallflower flatsedge (Cyperus difformis); assay: Test B flood test
Summary of the method: as §1

[4] = tested on: pigweed (Amaranthus retroflexus); assay: Test B pre-/postemergence
Description: (§2) Seeds of bedstraw (Galium aparine), blackgrass (Alopecurus myosuroides), broadleaf signalgrass (Brachiaria decumbens), cocklebur (Xanthium strumarium), corn (Zea mays), crabgrass (Digitaria sanguinalis), giant foxtail (Setaria faberii), lambsquarters (Chenopodium album), momingglory (Ipomoea hederacea), pigweed (Amaranthus retroflexus), rape (Brassica napus), soybean (Glycine max), sugar beet (Beta vulgaris), velvetleaf (Abutilon theophrasti), wheat (Triticum aestivum), wild oat (Avena fatua) and purple nutsedge (Cyperus rotundus) tubers were planted and treated preemergence with test chemicals formulated in a non-phytotoxic solvent mixture which included a surfactant.
(§3) At the same time, these crop and weed species were also treated with postemergence applications of test chemicals formulated in the same manner. Plants ranged in height from 2 to 18 cm (1- to 4-leaf stage) for postemergence treatments. Plant species in the flood test consisted of rice (Oryza sativa), smallflower flatsedge (Cyperus difformis), duck salad (Heteranthera limosa) and bamyardgrass (Echinochloa crus-galli) grown to the 2-leaf stage for testing. Treated plants and controls were maintained in a greenhouse for twelve to sixteen days, after which all species were compared to controls and visually evaluated. Plant response ratings, summarized in Table B, are based on a scale of 0 to 10 where 0 is no effect and 10 is complete control. A dash (−) response means no test result.

corn (Zea mays) = assay: Test B pre-/postemergence
Description: as §2, §3

[5] = tested on: giant foxtail (Setaria faberii); assay: Test B pre-/postemergence
Description: as §2, §3

[6] = tested on: momingglory (Ipomoea hederacea); assay: Test B pre-/postemergence
Description: as §2, §3

wild oat (Avena fatua) = assay: Test B pre-/postemergence
Description: as §2, §3

[7] = tested on: crabgrass (Digitaria sanguinalis); assay: Test B pre-/postemergence
Description: as §2, §3

[8] = tested on: bedstraw (Galium aparine); assay: Test B pre-/postemergence
Description: as §2, §3

[9] = tested on: velvetleaf (Abutilon theophrasti); assay: Test B pre-/postemergence
Description: as §2, §3

[10] = tested on: sugar beet (Beta vulgaris); assay: Test B pre-/postemergence
Description: as §2, §3

rape (Brassica napus) = assay: Test B pre-/postemergence
Description: as §2, §3

[11] = tested on: wheat (Triticum aestivum); assay: Test B pre-/postemergence
Description: as §2, §3

[12] = tested on: blackgrass (Alopecurus myosuroides); assay: Test B pre-/postemergence
Description: as §2, §3

[13] = tested on: cocklebur (Xanthium strumarium); assay: Test B pre-/postemergence
Description: as §2, §3

[14] = tested on: broadleaf signalgrass (Brachiaria decumbens); assay: Test B pre-/postemergence
Description: as §2, §3

soybean (Glycine max) = assay: Test B pre-/postemergence
Description: as §2, §3

[15] = tested on: purple nutsedge (Cyperus rotundus); assay: Test B pre-/postemergence
Description: as §2, §3

[16] = Rate 62 g/ha, Postemergence (flood test)
[17] = Rate 125 g/ha, Postemergence, flood test
[18] = Rate 250 g/ha, Postemergence (flood test species)

## Cc1cnc(-c2cccc(C(F)(F)F)c2)nc1Cc1cccc(C(F)(F)F)c1 [Compound 24]
Rice (Oryza sativa); [16]
  Plant response rating, Rice: 1
Rice (Oryza sativa); [17]
  Plant response rating, Rice: 1
Rice (Oryza sativa); [18]
  Plant response rating, Rice: 2
[1]; [16]
  Plant response rating, Ducksalad: 0
[1]; [17]
  Plant response rating, Ducksalad: 2
[1]; [18]
  Plant response rating, Ducksalad: 3
[2]; [16]
  Plant response rating, Barnyardgrass: 2
[2]; [17]
  Plant response rating, Barnyardgrass: 3
[2]; [18]
  Plant response rating, Barnyardgrass: 4
[3]; [16]
  Plant response rating, S. Flatsedge: 0
[3]; [17]
  Plant response rating, S. Flatsedge: 1
[3]; [18]
  Plant response rating, S. Flatsedge: 3
[4]; Rate 62 g/ha, Postemergence
  Plant response rating, Redroot pigweed: 9
[4]; Rate 62 g/ha, Preemergence
  Redroot pigweed plant response rating: 0
[4]; Rate 125 g/ha, Postemergence
  Plant response rating, Redroot pigweed: 10
[4]; Rate 125 g/ha, Preemergence
  Redroot pigweed plant response rating: 8
[4]; Rate 250 g/ha, Postemergence
  Plant response rating, Redroot pigweed: 10
[4]; Rate 250 g/ha, Preemergence
  Plant response rating, Redroot pigweed: 10
Corn (Zea mays); Rate 62 g/ha, Postemergence
  Plant response rating, Corn: 1
Corn (Zea mays); Rate 62 g/ha, Preemergence
  Corn plant response rating: 0
Corn (Zea mays); Rate 125 g/ha, Postemergence
  Plant response rating, Corn: 1
Corn (Zea mays); Rate 125 g/ha, Preemergence
  Corn plant response rating: 0
Corn (Zea mays); Rate 250 g/ha, Postemergence
  Plant response rating, Corn: 1
Corn (Zea mays); Rate 250 g/ha, Preemergence
  Plant response rating, Corn: 0
[5]; Rate 62 g/ha, Postemergence
  Plant response rating, Giant foxtail: 2
[5]; Rate 62 g/ha, Preemergence
  Giant foxtail plant response rating: 0
[5]; Rate 125 g/ha, Postemergence
  Plant response rating, Giant foxtail: 2
[5]; Rate 125 g/ha, Preemergence
  Giant foxtail plant response rating: 6
[5]; Rate 250 g/ha, Postemergence
  Plant response rating, Giant foxtail: 3
[5]; Rate 250 g/ha, Preemergence
  Plant response rating, Giant foxtail: 6
[6]; Rate 62 g/ha, Postemergence
  Plant response rating, Morningglory: 8
[6]; Rate 62 g/ha, Preemergence
  Morningglory plant response rating: 2
[6]; Rate 125 g/ha, Postemergence
  Plant response rating, Morningglory: 10
[6]; Rate 125 g/ha, Preemergence
  Morningglory plant response rating: 4
[6]; Rate 250 g/ha, Postemergence
  Plant response rating, Morningglory: 10
[6]; Rate 250 g/ha, Preemergence
  Plant response rating, Morningglory: 4
Wild oat (Avena fatua); Rate 62 g/ha, Postemergence
  Plant response rating, Wild oats: 2
Wild oat (Avena fatua); Rate 62 g/ha, Preemergence
  Wild oats plant response rating: 0
Wild oat (Avena fatua); Rate 125 g/ha, Postemergence
  Plant response rating, Wild oats: 3
Wild oat (Avena fatua); Rate 125 g/ha, Preemergence
  Wild oats plant response rating: 1
Wild oat (Avena fatua); Rate 250 g/ha, Postemergence
  Plant response rating, Wild oats: 4
Wild oat (Avena fatua); Rate 250 g/ha, Preemergence
  Plant response rating, Wild oats: 4
[7]; Rate 62 g/ha, Postemergence
  Plant response rating, Crabgrass: 8
[7]; Rate 62 g/ha, Preemergence
  Crabgrass plant response rating: 1
[7]; Rate 125 g/ha, Postemergence
  Plant response rating, Crabgrass: 8
[7]; Rate 125 g/ha, Preemergence
  Crabgrass plant response rating: 3
[7]; Rate 250 g/ha, Postemergence
  Plant response rating, Crabgrass: 8
[7]; Rate 250 g/ha, Preemergence
  Plant response rating, Crabgrass: 1
[8]; Rate 62 g/ha, Postemergence
  Plant response rating, Bedstraw: 4
[8]; Rate 62 g/ha, Preemergence
  Bedstraw plant response rating: 0
[8]; Rate 125 g/ha, Postemergence
  Plant response rating, Bedstraw: 10
[8]; Rate 125 g/ha, Preemergence
  Bedstraw plant response rating: 1
[8]; Rate 250 g/ha, Postemergence
  Plant response rating, Bedstraw: 10
[8]; Rate 250 g/ha, Preemergence
  Plant response rating, Bedstraw: 1
[9]; Rate 62 g/ha, Postemergence
  Plant response rating, Velvetleaf: 2
[9]; Rate 62 g/ha, Preemergence
  Velvetleaf plant response rating: 0
[9]; Rate 125 g/ha, Postemergence
  Plant response rating, Velvetleaf: 6
[9]; Rate 125 g/ha, Preemergence
  Velvetleaf plant response rating: 1
[9]; Rate 250 g/ha, Postemergence
  Plant response rating, Velvetleaf: 7
[9]; Rate 250 g/ha, Preemergence
  Plant response rating, Velvetleaf: 2
[10]; Rate 62 g/ha, Postemergence
  Plant response rating, Sugarbeets: 10
[10]; Rate 62 g/ha, Preemergence
  Sugarbeets plant response rating: 2
[10]; Rate 125 g/ha, Postemergence
  Plant response rating, Sugarbeets: 10
[10]; Rate 125 g/ha, Preemergence
  Sugarbeets plant response rating: 3
[10]; Rate 250 g/ha, Postemergence
  Plant response rating, Sugarbeets: 10
[10]; Rate 250 g/ha, Preemergence
  Plant response rating, Sugarbeets: 9
Rape (Brassica napus); Rate 62 g/ha, Postemergence
  Plant response rating, Rape: 8
Rape (Brassica napus); Rate 62 g/ha, Preemergence
  Rape plant response rating: 0
Rape (Brassica napus); Rate 125 g/ha, Postemergence
  Plant response rating, Rape: 10
Rape (Brassica napus); Rate 125 g/ha, Preemergence
  Rape plant response rating: 2
Rape (Brassica napus); Rate 250 g/ha, Postemergence
  Plant response rating, Rape: 10
Rape (Brassica napus); Rate 250 g/ha, Preemergence
  Plant response rating, Rape: 4
[11]; Rate 62 g/ha, Postemergence
  Plant response rating, Wheat: 2
[11]; Rate 62 g/ha, Preemergence
  Wheat plant response rating: 0
[11]; Rate 125 g/ha, Postemergence
  Plant response rating, Wheat: 2
[11]; Rate 125 g/ha, Preemergence
  Wheat plant response rating: 0
[11]; Rate 250 g/ha, Postemergence
  Plant response rating, Wheat: 3
[11]; Rate 250 g/ha, Preemergence
  Plant response rating, Wheat: 0
[12]; Rate 62 g/ha, Postemergence
  Plant response rating, Blackgrass: 2
[12]; Rate 62 g/ha, Preemergence
  Blackgrass plant response rating: 0
[12]; Rate 125 g/ha, Postemergence
  Plant response rating, Blackgrass: 3
[12]; Rate 125 g/ha, Preemergence
  Blackgrass plant response rating: 2
[12]; Rate 250 g/ha, Postemergence
  Plant response rating, Blackgrass: 4
[12]; Rate 250 g/ha, Preemergence
  Plant response rating, Blackgrass: 3
[13]; Rate 62 g/ha, Postemergence
  Plant response rating, Cocklebur: 9
[13]; Rate 62 g/ha, Preemergence
  Cocklebur plant response rating: 0
[13]; Rate 125 g/ha, Postemergence
  Plant response rating, Cocklebur: 9
[13]; Rate 125 g/ha, Preemergence
  Cocklebur plant response rating: 0
[13]; Rate 250 g/ha, Postemergence
  Plant response rating, Cocklebur: 10
[13]; Rate 250 g/ha, Preemergence
  Plant response rating, Cocklebur: 0
[14]; Rate 62 g/ha, Postemergence
  Plant response rating, B. signalgrass: 2
[14]; Rate 62 g/ha, Preemergence
  B. signalgrass plant response rating: 2
[14]; Rate 125 g/ha, Postemergence
  Plant response rating, B. signalgrass: 2
[14]; Rate 125 g/ha, Preemergence
  B. signalgrass plant response rating: 3
[14]; Rate 250 g/ha, Postemergence
  Plant response rating, B. signalgrass: 3
[14]; Rate 250 g/ha, Preemergence
  Plant response rating, B. signalgrass: 6
Soybean (Glycine max); Rate 62 g/ha, Postemergence
  Plant response rating, Soybean: 3
Soybean (Glycine max); Rate 62 g/ha, Preemergence
  Soybean plant response rating: 0
Soybean (Glycine max); Rate 125 g/ha, Postemergence
  Plant response rating, Soybean: 6
Soybean (Glycine max); Rate 125 g/ha, Preemergence
  Soybean plant response rating: 0
Soybean (Glycine max); Rate 250 g/ha, Postemergence
  Plant response rating, Soybean: 6
Soybean (Glycine max); Rate 250 g/ha, Preemergence
  Plant response rating, Soybean: 0
[15]; Rate 62 g/ha, Postemergence
  Plant response rating, Nutsedge: 0
[15]; Rate 62 g/ha, Preemergence
  Nutsedge plant response rating: 0
[15]; Rate 125 g/ha, Postemergence
  Plant response rating, Nutsedge: 1
[15]; Rate 125 g/ha, Preemergence
  Nutsedge plant response rating: 0
[15]; Rate 250 g/ha, Preemergence
  Plant response rating, Nutsedge: 0
